Measured values taken from article PMC6151437, “Antibacterial Synthetic Peptides Derived from Bovine Lactoferricin Exhibit Cytotoxic Effect against MDA-MB-468 and MDA-MB-231 Breast Cancer Cell Lines” (Molecules : A Journal of Synthetic Chemistry and Natural …, 2017).
≈ marks a conversion by molar mass, not a printed value. Read-outs that look alike come from different tables or passages of the source. Bridge positions count the residues as written; N and C are the ends. Square brackets hold non-standard residues; d marks the D form. Ends that are not written are not given here. Peptide text beside a SMILES is read from it. I, II: the chains in the order shown. Ahx = NCCCCCC(=O)O

Tests used:
E. coli ATCC 25922 = assay type: cell-based
Protocol: (§1) The minimal inhibitory concentration (MIC) was determined using a microdilution assay. In brief, bacterial strains were incubated for 18 to 24 h at 37 °C in an Muller Hinton broth (MHB) until an optical density of 0.15 to 0.30 (620 nm) was obtained. 90 µL of MHB was mixed with 90 µL of peptide (440 µg/mL), and using a 96-well microtiter plate peptide, serial dilution (200, 100, 50, 25, 12.5, and 6.2 µg/mL) was performed. 10 µL of inoculum (2 × 10^6 CFU/mL) was added to each well. Final volume in each well was 100 µL. Then they were incubated for 24 h at 37 °C, and the absorbance at 620 nm was measured using an Asys Expert Plus ELISA reader. For determining the minimum bactericidal concentration (MBC), a small sample was taken from each well using an inoculation loop, which was then spread on MHA plates and incubated overnight at 37 °C. […] Each of these tests was performed twice (n = 2).

E. coli ATCC 11775 = assay type: cell-based
Protocol: as §1

[1] = tested on: breast cancer cell line MDA-MB-231; conditions: even at the highest tested concentration (40 µM); cited from earlier work
Protocol: For the second part of the experiments, all members of each designed peptide family were tested against MDA-MB-468 and MDA-MB-231 breast cancer cell lines (Figure 3). […] When breast cancer cells lines were incubated with linear peptides or cyclic peptides (200 µg/mL), their viability was approximately 80%.

[2] = tested on: human gastric cancer cell line AGS; conditions: cited from earlier work
[3] = assay type: cell-based, human
Protocol: (§2) Cytotoxicity assays were performed as previously described. Briefly, breast cancer cell lines (100 µL; 2.5 × 10^3 cells/well) were seeded in 96-well flat bottom tissue culture treated plates and were incubated at 37 °C in a 10% CO2 humidified atmosphere for 24 h, allowing for cell adhesion. Then the media was removed, then 100 µL of FBS (5%) and 100 µL of peptide were added. The peptide final concentration was ranging from 200 to 6.25 µg/mL and the final FBS concentration was 2.5%. Plates were incubated 2 h at 37 °C in a 10% CO2 humidified atmosphere (physiologic pH). Negative controls included medium and water. All controls were prepared in triplicate. Cell viability was determined using the MTT assay after 2 h. For this, 10 µL of MTT solution (5 mg/mL) was added to each well, and the plates were incubated for 2 h at 37 °C. Formazan crystals were clarified by centrifugation, the supernatant was discarded, and the crystals were dissolved in DMSO (100 µL). Absorbance (570 nm) was registered on a Bio-Rad 680 microplate reader. (n = 3).

[4] = assay type: cell-based, human; remark: listed apart in the source
Protocol: as §2

S. aureus ATCC 25923 = tested on: S. aureus ATCC 25923; design: method as in ref 15, 25, 26 = [15]; PMID 25815317; doi:10.1155/2015/453826; 15. León M.A. Leal A.L. Almanzar G. Rosas J.E. García J.E. Rivera Z.J. Antibacterial activity of synthetic peptides derived from Lactoferricin against Escherichia coli ATCC 25922 and Enterococcus faec || [25]; PMID 28613262; doi:10.3390/molecules22060987; 25. Huertas N.J. Monroy Z.J.R. Medina R.F. Castañeda J.E.G. Antimicrobial Activity of Truncated and Polyvalent Peptides Derived from the FKCRRWQWRMKKGLA Sequence against Escherichia coli ATCC 25922 an || [26]; PMID 28287494; doi:10.3390/molecules22030452; 26. Huertas Méndez N.J. Vargas Casanova Y. Gómez Chimbi A.K. Hernández E. Leal Castro A.L. Melo Diaz J.M. Rivera Monroy Z.J. García Castañeda J.E. Synthetic Peptides Derived from Bovine Lactoferricin; conditions: cited from earlier work
[5] = tested on: S. enteriditis ATCC 13076; design: method as in ref 15, 25, 26 = [15]; PMID 25815317; doi:10.1155/2015/453826; 15. León M.A. Leal A.L. Almanzar G. Rosas J.E. García J.E. Rivera Z.J. Antibacterial activity of synthetic peptides derived from Lactoferricin against Escherichia coli ATCC 25922 and Enterococcus faec || [25]; PMID 28613262; doi:10.3390/molecules22060987; 25. Huertas N.J. Monroy Z.J.R. Medina R.F. Castañeda J.E.G. Antimicrobial Activity of Truncated and Polyvalent Peptides Derived from the FKCRRWQWRMKKGLA Sequence against Escherichia coli ATCC 25922 an || [26]; PMID 28287494; doi:10.3390/molecules22030452; 26. Huertas Méndez N.J. Vargas Casanova Y. Gómez Chimbi A.K. Hernández E. Leal Castro A.L. Melo Diaz J.M. Rivera Monroy Z.J. García Castañeda J.E. Synthetic Peptides Derived from Bovine Lactoferricin; conditions: cited from earlier work
E. coli = tested on: E. coli; design: method as in ref 15, 25, 26 = [15]; PMID 25815317; doi:10.1155/2015/453826; 15. León M.A. Leal A.L. Almanzar G. Rosas J.E. García J.E. Rivera Z.J. Antibacterial activity of synthetic peptides derived from Lactoferricin against Escherichia coli ATCC 25922 and Enterococcus faec || [25]; PMID 28613262; doi:10.3390/molecules22060987; 25. Huertas N.J. Monroy Z.J.R. Medina R.F. Castañeda J.E.G. Antimicrobial Activity of Truncated and Polyvalent Peptides Derived from the […] Sequence against Escherichia coli ATCC 25922 an || [26]; PMID 28287494; doi:10.3390/molecules22030452; 26. Huertas Méndez N.J. Vargas Casanova Y. Gómez Chimbi A.K. Hernández E. Leal Castro A.L. Melo Diaz J.M. Rivera Monroy Z.J. García Castañeda J.E. Synthetic Peptides Derived from Bovine Lactoferricin; conditions: first of three values given 'respectively', strain not distinguished; cited from earlier work

Compound: RRWQWR-NH2 [LfcinB (20–25)]
- Antibacterial Effect MBC (E. coli ATCC 25922; ATCC 25922): 203 µM
- Antibacterial Effect MIC (E. coli ATCC 25922; ATCC 25922, 24 h): 203 µM
- Antibacterial Effect MBC (E. coli ATCC 11775; ATCC 11775): 203 µM
- Antibacterial Effect MIC (E. coli ATCC 11775; ATCC 11775, 24 h): 203 µM
- cytotoxic activity (in words) [1]: weak cytotoxic activity
- IC50 [2]: > 500 µM
- IC50 [3]: > 203 µM
- IC50 [4]: > 203 µM

Compound: N=C(N)NCCC[C@H](NC(=O)[C@H](Cc1c[nH]c2ccccc12)NC(=O)[C@H](CCC(N)=O)NC(=O)[C@H](Cc1c[nH]c2ccccc12)NC(=O)[C@H](CCCNC(=N)N)NC(=O)[C@@H](N)CCCNC(=N)N)C(=O)NCCCC[C@H](NC(=O)[C@H](CCCNC(=N)N)NC(=O)[C@H](Cc1c[nH]c2ccccc12)NC(=O)[C@H](CCC(N)=O)NC(=O)[C@H](Cc1c[nH]c2ccccc12)NC(=O)[C@H](CCCNC(=N)N)NC(=O)[C@@H](N)CCCNC(=N)N)C(=O)NCCCCCC(N)=O [LfcinB (20–25)2] (I: H-RRWQWRK[Ahx]-NH2 / II: H-RRWQWR; amide I:7-II:C)
- Antibacterial Effect MBC (E. coli ATCC 25922; ATCC 25922): 11 µM
- Antibacterial Effect MIC (E. coli ATCC 25922; ATCC 25922, 24 h): 6 µM
- Antibacterial Effect MIC (E. coli ATCC 25922; E. coli ATCC 25922, microdilution in MHB, 24 h at 37 °C, absorbance 620 nm, n = 2): 12.5 µg/mL
- Antibacterial Effect MBC (E. coli ATCC 25922; E. coli ATCC 25922, plated on MHA overnight at 37 °C, no bacterial growth, n = 2): 25 µg/mL
- Antibacterial Effect MBC (E. coli ATCC 11775; ATCC 11775): 22 µM
- Antibacterial Effect MIC (E. coli ATCC 11775; ATCC 11775, 24 h): 22 µM
- Antibacterial Effect MIC (E. coli ATCC 11775; E. coli ATCC 11775, microdilution in MHB, 24 h at 37 °C, absorbance 620 nm, n = 2): 50 µg/mL
- Antibacterial Effect MBC (E. coli ATCC 11775; E. coli ATCC 11775, plated on MHA overnight at 37 °C, no bacterial growth, n = 2): 50 µg/mL
- MIC (S. aureus ATCC 25923): 5.6 µM (≈ 12.3 µg/mL)
- MIC [5]: 22.4 µM (≈ 49.2 µg/mL)
- IC50 at 2 h ([3]; human): > 100 µM
- MIC (E. coli): 2.8 µM (≈ 6.15 µg/mL)
